| SMILES | melting point |
| --- | --- |
| CCOc1ccc(-c2nnc3n2NC(c2ccc(N(C)C)cc2)S3)cc1 (stereo unspecified) | 137 °C |
| NCc1cc(C(F)(F)F)cc(C(F)(F)F)c1 | 57 °C |
| FC(F)C(F)(F)Cl | -117 °C |
| CC(C)C(N)=NO | 60 to 61 °C |
| CCCCC=CC=CC=CCCCCCCCC(=O)O | 71.5 °C |
| CC(=O)OC1CCC2(C)C(CC(=O)C3C2CCC2(C)C(OC(=O)c4ccccc4)CCC32)C1 (stereo unspecified) | 175 °C |
| CC1CCCCS1 (stereo unspecified) | -58 °C |
| O=Cc1ccc2ccc3cccc4ccc1c2c34 | 127 °C |
| O=C(CBr)c1ccc(OC(F)(F)F)cc1 | 55 to 58 °C |
| Oc1cccc2c1CCCC2O (stereo unspecified) | 132 to 134 °C |
| O=C1OCC(O)C1O (stereo unspecified) | 99 to 102 °C |
| O=C(C=Cc1ccc(OCCCl)cc1)c1ccc(OCCCl)cc1 | 83 °C |
| COC(=O)c1cncc(Br)c1 | 98 to 100 °C |
| Cn1cnc(N)c2ncnc1-2 | 300 °C |
| CC12CCC(C(=O)O)(OC1=O)C2(C)C (stereo unspecified) | 200 °C |
| CC(C=CC=C(C)C(=O)O)=CC=CC=C(C)C=CC=C(C)C(=O)O | 286 °C |
| Nc1ccc2nsnc2c1 | 112 to 114 °C |
| CN1C(=O)C(=NNc2c(Br)cc(Br)cc2Br)C(=O)N(C)C1=O | 165 °C |
| O=C(O)c1cc(Cl)c(Cl)c(Cl)c1Cl | 194 °C |
| COC(=O)c1ccc(Oc2cc(Cl)cc(Cl)c2)o1 | 86 to 89 °C |
| CC(O)[C@@]1(O)CC[C@H]2[C@@H]3CCC4(C)C[C@H](O)CC[C@]4(C)[C@H]3CC[C@@]21C (stereo partly specified) | 254 to 255 °C |
| Cc1cc(S(=O)(=O)Cl)c(Cl)cc1Cl | 72 °C |
| CCCCCCCC1CCCC(=O)O1 (stereo unspecified) | -12 °C |
| CCN(CC)CCOCc1cc(Br)cc(Br)c1OC | < 25 °C |
| O=Cc1c[nH]nc1-c1cccs1 | 102 to 103 °C |
| COC1CCC(OC)O1 (stereo unspecified) | -45 °C |
| NS(=O)(=O)c1cc(Cl)c(Cl)cc1Cl | 189 °C |
| COC(=O)c1ccc(OC)c(Br)c1 | 97 °C |
| Cc1cc(NC(=O)C=CC(=O)O)no1 | 165 to 172 °C |
| O=[N+]([O-])C=Cc1c(Cl)cccc1Cl | 62 to 66 °C |

Results, then the compound that gave them:

| melting point | SMILES |
| --- | --- |
| 201 °C | NC1=C(Cl)C(=O)c2ccccc2C1=O |
| 53 to 58 °C | COC(=O)Cc1ccc(OCc2ccccc2)cc1 |
| 78 °C | Cc1cccc2cc3ccccc3c(=O)n12 |
| 91 to 92 °C | O=C(Nc1cccnc1Cl)c1ccccc1 |
| 91 °C | O=S(=O)(O)c1ccc2ccccc2c1 |
| 135 °C | O=C(O)c1ccc(F)c(Cl)c1 |
| 135 °C | O=C(O)c1cccc(S(=O)(=O)Cl)c1 |
| 261 to 264 °C | Nc1nc(-c2ccc3c(c2)Cc2ccccc2-3)cs1 |
| 75 to 78 °C | O=C1OC(=O)c2cc(F)ccc21 |
| 90.5 to 92.5 °C | CN(CCO)c1cc(C(F)(F)F)nc2ccccc12 |
| 151 °C | CC(=O)Nc1ccc(Br)c(F)c1 |
| 34 to 37 °C | COC(=O)Cc1cccc(OCc2ccccc2)c1 |
| 103 °C | Cc1cc([N+]([O-])=Nc2ccccc2)ccc1N=Nc1ccccc1 |
| 196 °C | CC(=O)NS(=O)(=O)c1ccc(NC(=O)c2ccccc2C(=O)O)cc1 |
| 18 °C | O=C1CCc2ccccc2C1 |
| 185 to 186 °C | O=[N+]([O-])c1ccc(C#Cc2ccc([N+](=O)[O-])cc2S(=O)(=O)Oc2ccccc2)c(S(=O)(=O)Oc2ccccc2)c1 |
| 176 °C | CN(C)C(=O)C(c1ccccc1)C(O)c1ccccc1 (stereo unspecified) |
| 93 °C | COc1cccc2cc(C(C)=O)oc12 |
| 130 °C | COc1cc(O)c(C(=O)c2ccccc2)c(O)c1 |
| 52 °C | O=[N+]([O-])c1ccc(OS(=O)(=O)C(F)(F)F)cc1 |
| 22 °C | CC(=O)Oc1ccc(C)c(C)c1 |

Reference: a melting point compilation (Tetko et al.)
